Reference: patent publication US9969775B2, “CGRP antagonist peptides” (Ferring B.V., priority 2015, dated 2018)
Numbered stars: 1 amine (or outer) side, 2 acyl side, 3 side chain; on linkers, the order of the positions; unused ones are H or OH. Bridge positions count the residues as written; N and C are the ends. Square brackets hold non-standard residues; d marks the D form. Peptide text beside a SMILES is read from it. * marks the point of attachment. Phe(3-CH2NH2) = O=C([C@H](Cc1cccc(CN[*:3])c1)N[*:1])[*:2]; Phe(2-CONH2) = NC(=O)c1ccccc1C[C@H](N)C(=O)O; X15 = N#CN=C(N)NCCC[C@H](N[*:1])C(=O)[*:2]; X5 = O=C([C@H](Cc1ccc(CO)cc1)N[*:1])[*:2]; Triazol3yl(1,2,4-5-NH2) = Nc1nc(*)n[nH]1; Picolinoyl(3,5-F2) = O=C(c1ncc(F)cc1F)*; Imidazole4carbonyl = O=C(c1cnc[nH]1)*; Arg(Me) = CNC(=N)NCCC[C@H](N)C(=O)O; Orn(iPr) = CC(C)NCCC[C@H](N)C(=O)O; Oxazole2carbonyl = O=C(c1ncco1)*; 3Pal = N[C@@H](Cc1cccnc1)C(=O)O; Picolinoyl = O=C(c1ccccn1)*; ΔPro = O=C(O)[C@@H]1C=CCN1; Orn = NCCC[C@H](N)C(=O)O; X12 = Cc1cccnc1C(=O)*; X1 = O=C(c1ncccc1F)*; X9 = Nc1cccnc1C(=O)*; X10 = O=C(c1nccs1)*; X6 = O=C(c1ccncn1)*

Experiments:
[1] = molecular target: T1, hCGRP receptor (CALCRL:RAMP1) (Homo sapiens, UniProt O60894+Q16602); test: CGRP receptor antagonist activity measured by cAMP assay (HTRF); type: cell-based; details: agonist human α-CGRP; for Emax: % MPE: percent of the maximal possible effect, read-out: hCGRP-R Efficacy Antag (%) Ave; for IC50: GeneBLAzer CALCRL:RAMP1-CRE-bla Freestyle 293F cells, 30 minutes, read-out: hCGRP-R IC50 Ave
T1 construct: host or cells: GeneBLAzer CALCRL:RAMP1-CRE-bla Freestyle 293F
Description: Example 6: CGRP Receptor Antagonist Activity Measured by cAMP Assay
CGRP receptor agonists increase intracellular cyclic adenosine mono-phosphate (cAMP). CGRP receptor antagonists can reduce the agonist effect. Antagonist activity was assessed by measurement of cyclic adenosine mono-phosphate (cAMP) using cell line stably expressing the hCGRP receptor (GeneBLAzer® CALCRL:RAMP1-CRE-bla Freestyle™ 293F, Invitrogen). hCGRP receptor expressing cells were maintained in DMEM high-glucose with GlutaMAX™ containing 10% (v/v) FBS, 0.1 mM NEAA, 25 mM HEPES, 5 ug/ml Blasticidin, 100 ug/ml Hygromycin, and 400 ug/ml Geneticin at 37° C. under 5% CO2 in a humidified atmosphere. For cAMP measurement, cells were washed once with 5 ml 1×PBS, cell maintenance media was replaced with compound buffer ((CB): DMEM containing 0.1% BSA and 0.5 mM IBMX), and flasks were incubated for 1 hour at 37° C. under 5% CO2 in a humidified atmosphere. Cells were removed from culture flasks using non-enzymatic cell dissociation buffer and harvested in CB. The reaction was performed in 384 well white small volume plates (Greiner) at a density of 10,000 cells/well. Cells were exposed to varying concentrations of antagonist compounds for 30 minutes in the presence of a fixed concentration of agonist (human α-CGRP). cAMP levels were measured using an HTRF (homogeneous time resolved fluorescence)-based competitive cAMP immunoassay (cAMP Dynamic 2 Kit, Cisbio), according to the manufacturer's instructions. […] Reported parameters include antagonist potency IC50 (the concentration causing half-maximal inhibition of the agonist response for antagonist compounds) and efficacy (% MPE: percent of the maximal possible effect).

[2] = molecular target: T2, hAM2 receptor (CALCRL:RAMP3) (Homo sapiens, UniProt O60896+Q16602); test: AM2 receptor antagonist activity measured by cAMP assay (HTRF); type: cell-based; details: for Emax: % MPE: percent of the maximal possible effect, read-out: hAM2-R Efficacy Antag (%) Ave; for Emax / IC50: agonist human adrenomedullin; for IC50: GeneBLAzer CALCRL:RAMP3-CRE-bla Freestyle 293F cells, read-out: hAM2-R IC50 Ave; for selectivity ratio CGRP/AM2: selectivity ratio for hCGRP over hAM2, calculated from the IC50 values
T2 construct: expressed in transfected cells; host or cells: GeneBLAzer CALCRL:RAMP3-CRE-bla Freestyle 293F
T2 sequence (Q16602 23-461): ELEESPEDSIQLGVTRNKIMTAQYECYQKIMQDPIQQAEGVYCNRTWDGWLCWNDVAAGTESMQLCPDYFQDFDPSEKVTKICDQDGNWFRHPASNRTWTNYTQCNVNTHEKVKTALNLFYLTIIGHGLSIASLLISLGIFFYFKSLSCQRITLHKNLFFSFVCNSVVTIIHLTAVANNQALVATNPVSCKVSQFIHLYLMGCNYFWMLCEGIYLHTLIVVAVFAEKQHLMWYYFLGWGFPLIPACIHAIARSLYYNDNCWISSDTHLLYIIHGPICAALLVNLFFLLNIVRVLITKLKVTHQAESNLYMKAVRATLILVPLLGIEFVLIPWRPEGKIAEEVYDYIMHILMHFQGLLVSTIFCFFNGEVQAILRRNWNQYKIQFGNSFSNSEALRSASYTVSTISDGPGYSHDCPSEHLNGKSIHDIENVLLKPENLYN
T2 sequence (O60896 24-148): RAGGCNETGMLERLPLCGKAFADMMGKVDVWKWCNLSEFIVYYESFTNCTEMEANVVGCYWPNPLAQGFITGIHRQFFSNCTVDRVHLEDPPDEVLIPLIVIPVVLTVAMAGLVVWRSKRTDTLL

T1 sequence (Q16602 23-461): as the sequence (Q16602 23-461) above
T1 sequence (O60894 27-148): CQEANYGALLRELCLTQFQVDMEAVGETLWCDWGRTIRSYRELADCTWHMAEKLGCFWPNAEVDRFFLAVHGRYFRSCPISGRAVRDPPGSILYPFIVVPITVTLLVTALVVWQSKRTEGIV

Row | Emax [1] [%] | IC50 [1] [nM] | Emax [2] [%] | IC50 [2] [nM] | selectivity ratio CGRP/AM2 [2] | SMILES
1 | 100 | 0.07 | 100 | 78 | 1071 | CC(C)[C@@H]1NC(=O)[C@H](CC(=O)O)NC(=O)[C@H](CCCN)NC(=O)[C@@H](NC(=O)[C@H](Cc2ccc(O)cc2)NC(=O)[C@H](NC(=O)c2ccccn2)C(C)C)CSSC[C@@H](C(=O)N[C@@H](Cc2cccnc2)C(N)=O)NC(=O)[C@H](Cc2ccc(CO)cc2)NC(=O)[C@@H]2CCCN2C(=O)CNC1=O [Compound 25, Picolinoyl-D-Val-Tyr-c(Cys-Orn-Asp-Val-Gly-Pro-Phe(4-CH2OH)-Cys)-3Pal-NH2] (Picolinoyl-[dV]YC[Orn]DVGP[X5]C[3Pal]-NH2; disulfide 3-10)
2 | 100 |  | 100 |  |  | CC(C)[C@@H]1NC(=O)[C@H](CC(=O)O)NC(=O)[C@H](CCCNC(N)=NC#N)NC(=O)[C@@H](NC(=O)[C@H](Cc2ccc(O)cc2)NC(=O)[C@H](NC(=O)c2ccccn2)C(C)C)CSSC[C@@H](C(=O)N[C@@H](Cc2cccnc2)C(N)=O)NC(=O)[C@H](Cc2ccccc2)NC(=O)[C@@H]2CCCN2C(=O)CNC1=O [Compound 26, Picolinoyl-D-Val-Tyr-c(Cys-Arg(CN)-Asp-Val-Gly-Pro-Phe-Cys)-3Pal-NH2] (Picolinoyl-[dV]YC[X15]DVGPFC[3Pal]-NH2; disulfide 3-10)
3 | 100 | 0.15 | 98 | 119 | 765 | CC(C)[C@@H]1NC(=O)[C@H](CC(=O)O)NC(=O)[C@H](CCCNc2nc(N)n[nH]2)NC(=O)[C@@H](NC(=O)[C@H](Cc2ccc(O)cc2)NC(=O)[C@H](NC(=O)c2ccccn2)C(C)C)CSSC[C@@H](C(=O)N[C@@H](Cc2cccnc2)C(N)=O)NC(=O)[C@H](Cc2ccccc2)NC(=O)[C@@H]2CCCN2C(=O)CNC1=O [Compound 27, Picolinoyl-D-Val-Tyr-c(Cys-Orn(Atz)-Asp-Val-Gly-Pro-Phe-Cys)-3Pal-NH2] (Picolinoyl-[dV]YC[Orn](Triazol3yl(1,2,4-5-NH2))DVGPFC[3Pal]-NH2; disulfide 3-10)
4 | 100 |  | 99 |  |  | CNC(=N)NCCC[C@@H]1NC(=O)[C@@H](NC(=O)[C@H](Cc2ccc(O)cc2)NC(=O)[C@H](NC(=O)c2ccccn2)C(C)C)CSSC[C@@H](C(=O)N[C@@H](Cc2cccnc2)C(N)=O)NC(=O)[C@H](Cc2ccccc2)NC(=O)[C@@H]2CCCN2C(=O)CNC(=O)[C@H](C(C)C)NC(=O)[C@H](CC(=O)O)NC1=O [Compound 28, Picolinoyl-D-Val-Tyr-c(Cys-Arg(Me)-Asp-Val-Gly-Pro-Phe-Cys)-3Pal-NH2] (Picolinoyl-[dV]YC[Arg(Me)]DVGPFC[3Pal]-NH2; disulfide 3-10)
5 | 100 | 0.09 | 98 | 148 | 1699 | CC(C)[C@@H]1NC(=O)[C@H](CC(=O)O)NC(=O)[C@H](CCCN)NC(=O)[C@@H](NC(=O)[C@H](Cc2ccc(O)cc2)NC(=O)[C@H](NC(=O)c2ncccc2F)C(C)C)CSSC[C@@H](C(=O)N[C@@H](Cc2cccnc2)C(N)=O)NC(=O)[C@H](Cc2ccc(CO)cc2)NC(=O)[C@@H]2CCCN2C(=O)CNC1=O [Compound 29, Picolinoyl(3-F)-D-Val-Tyr-c(Cys-Orn-Asp-Val-Gly-Pro-Phe(4-CH2OH)-Cys)-3Pal-NH2] (X1-[dV]YC[Orn]DVGP[X5]C[3Pal]-NH2; disulfide 3-10)
6 | 100 | 0.11 | 98 | 700 | 6628 | CC(C)NCCC[C@@H]1NC(=O)[C@@H](NC(=O)[C@H](Cc2ccccc2C(N)=O)NC(=O)[C@H](NC(=O)c2ncco2)C(C)C)CSSC[C@@H](C(=O)N[C@@H](Cc2cccnc2)C(N)=O)NC(=O)[C@H](Cc2ccccc2)NC(=O)[C@@H]2CCCN2C(=O)CNC(=O)[C@H](C(C)C)NC(=O)[C@H](CC(=O)O)NC1=O [Compound 30, Oxazole-2-carbonyl-D-Val-Phe(2-Cbm)-c(Cys-Orn(iPr)-Asp-Val-Gly-Pro-Phe-Cys)-3Pal-NH2] (Oxazole2carbonyl-[dV][Phe(2-CONH2)]C[Orn(iPr)]DVGPFC[3Pal]-NH2; disulfide 3-10)
7 | 100 | 0.12 | 100 | 46 | 390 | CC(C)[C@@H]1NC(=O)[C@H](CC(=O)O)NC(=O)[C@H](CCCNC(=N)N)NC(=O)[C@@H](NC(=O)[C@H](Cc2ccccc2C(N)=O)NC(=O)[C@H](NC(=O)c2ccncn2)C(C)C)CSSC[C@@H](C(=O)N[C@@H](Cc2cccnc2)C(N)=O)NC(=O)[C@H](Cc2cccc(CN)c2)NC(=O)[C@@H]2C=CCN2C(=O)CNC1=O [Compound 31, Pyrimidine-4-carbonyl-D-Val-Phe(2-Cbm)-c(Cys-Arg-Asp-Val-Gly-Dhp-Phe(3-CH2NH2)-Cys)-3Pal-NH2] (X6-[dV][Phe(2-CONH2)]CRDVG[ΔPro][Phe(3-CH2NH2)]C[3Pal]-NH2; disulfide 3-10)
8 | 100 | 0.12 | 99 | 61 | 498 | CC(C)[C@@H]1NC(=O)[C@H](CC(=O)O)NC(=O)[C@H](CCCNC(=N)N)NC(=O)[C@@H](NC(=O)[C@H](Cc2ccccc2C(N)=O)NC(=O)[C@H](NC(=O)c2ncccc2F)C(C)C)CSSC[C@@H](C(=O)N[C@@H](Cc2cccnc2)C(N)=O)NC(=O)[C@H](Cc2cccc(CN)c2)NC(=O)[C@@H]2C=CCN2C(=O)CNC1=O [Compound 32, Picolinoyl(3-F)-D-Val-Phe(2-Cbm)-c(Cys-Arg-Asp-Val-Gly-Dhp-Phe(3-CH2NH2)-Cys)-3Pal-NH2] (X1-[dV][Phe(2-CONH2)]CRDVG[ΔPro][Phe(3-CH2NH2)]C[3Pal]-NH2; disulfide 3-10)
9 | 100 | 0.1 | 100 | 11 | 117 | CC(C)[C@@H]1NC(=O)[C@H](CC(=O)O)NC(=O)[C@H](CCCNC(=N)N)NC(=O)[C@@H](NC(=O)[C@H](Cc2ccc(O)cc2)NC(=O)[C@H](NC(=O)c2nccs2)C(C)C)CSSC[C@@H](C(=O)N[C@@H](Cc2cccnc2)C(N)=O)NC(=O)[C@H](Cc2ccccc2)NC(=O)[C@@H]2CCCN2C(=O)CNC1=O [Compound 33] (X10-[dV]YCRDVGPFC[3Pal]-NH2; disulfide 3-10)
10 | 100 | 0.14 | 100 | 7.9 | 58 | Cc1cccnc1C(=O)N[C@@H](C(=O)N[C@@H](Cc1ccc(O)cc1)C(=O)N[C@H]1CSSC[C@@H](C(=O)N[C@@H](Cc2cccnc2)C(N)=O)NC(=O)[C@H](Cc2ccccc2)NC(=O)[C@@H]2CCCN2C(=O)CNC(=O)[C@H](C(C)C)NC(=O)[C@H](CC(=O)O)NC(=O)[C@H](CCCNC(=N)N)NC1=O)C(C)C [Compound 34] (X12-[dV]YCRDVGPFC[3Pal]-NH2; disulfide 3-10)
11 | 100 | 0.06 | 101 | 33 | 580 | CC(C)[C@@H]1NC(=O)[C@H](CC(=O)O)NC(=O)[C@H](CCCNC(=N)N)NC(=O)[C@@H](NC(=O)[C@H](Cc2ccc(O)cc2)NC(=O)[C@H](NC(=O)c2ncc(F)cc2F)C(C)C)CSSC[C@@H](C(=O)N[C@@H](Cc2cccnc2)C(N)=O)NC(=O)[C@H](Cc2ccccc2)NC(=O)[C@@H]2CCCN2C(=O)CNC1=O [Compound 35] ({Picolinoyl(3,5-F2)}-[dV]YCRDVGPFC[3Pal]-NH2; disulfide 3-10)
12 | 100 | 0.17 | 101 | 16 | 93 | CC(C)[C@@H]1NC(=O)[C@H](CC(=O)O)NC(=O)[C@H](CCCNC(=N)N)NC(=O)[C@@H](NC(=O)[C@H](Cc2ccc(O)cc2)NC(=O)[C@H](NC(=O)c2ncccc2N)C(C)C)CSSC[C@@H](C(=O)N[C@@H](Cc2cccnc2)C(N)=O)NC(=O)[C@H](Cc2ccccc2)NC(=O)[C@@H]2CCCN2C(=O)CNC1=O [Compound 36] (X9-[dV]YCRDVGPFC[3Pal]-NH2; disulfide 3-10)
13 | 100 | 0.17 | 100 | 379 | 2295 | CC(C)[C@@H]1NC(=O)[C@H](CC(=O)O)NC(=O)[C@H](CCCNC(=N)N)NC(=O)[C@@H](NC(=O)[C@H](Cc2ccc(O)cc2)NC(=O)[C@H](NC(=O)c2cnc[nH]2)C(C)C)CSSC[C@@H](C(=O)N[C@@H](Cc2cccnc2)C(N)=O)NC(=O)[C@H](Cc2ccccc2)NC(=O)[C@@H]2CCCN2C(=O)CNC1=O [Compound 37] (Imidazole4carbonyl-[dV]YCRDVGPFC[3Pal]-NH2; disulfide 3-10)
